The source of these data is ChEMBL document CHEMBL1201862, “PubChem BioAssay data set” (2004).

Among the test systems are A498; ACHN; HCT-15; Hs-578T; IGROV-1; K562; KM12; MDA-N; NCI-H460; SNB-19; SNB-75; T47D; U-251; UACC-257; LOX IMVI; OVCAR-4; SF-268; SF-295; CCRF-CEM; SK-OV-3.
Holding throughout (test): NCI anticancer screen, dose series, 48 h

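Protocol summary: plate cells (96-well), add compound at 5 concentrations, incubate 48 h, interpolate endpoints linearly. At the GI50, growth is halved.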 The source made the active and inactive calls. No stated cut-off is given here; in the data, active = GI50 up to about 1.1 µM and inactive = higher.

As for `CCOC(=O)C1CCCc2sc(N)c(C#N)c21` (stereo unspecified), the GI50 in the assay with A498 is > 100 µM (inactive); in the assay with ACHN, > 100 µM (inactive); in the assay with HCT-15, over 100 µM; in the assay with Hs-578T, > 100 µM (inactive); in the assay with IGROV-1, > 100 µM (inactive); with K562, > 100 µM (inactive). For the same compound, the GI50 in the assay on KM12, in the assay on MDA-N, in the assay with NCI-H460, with SNB-19, in the assay on SNB-75 and with T47D was > 100 µM (inactive) in each case. Further, the GI50 in the assay on U-251 and in the assay with UACC-257 was > 100 µM (inactive) in each case.
As for `O=C1/C(=C/c2cc3c(=O)c4ccccc4sc3s2)NC(=S)N1c1ccccc1`, the GI50 with A498 is > 100 µM (inactive); in the assay on ACHN, > 100 µM (inactive); in the assay on HCT-15 it was over 100 µM; with Hs-578T, > 100 µM (inactive); in the assay on IGROV-1, > 100 µM (inactive); in the assay on K562, 40.6 µM (inactive). Besides, the GI50 in the assay with KM12 was > 100 µM (inactive); with LOX IMVI it was > 100 µM (inactive); in the assay on MDA-N it was > 100 µM (inactive); in the assay with NCI-H460, > 100 µM (inactive); with OVCAR-4 it was > 100 µM (inactive); with SF-268, 55 µM (inactive). For the same compound, the GI50 in the assay on SF-295 was 66.4 µM (inactive); in the assay with SNB-19, 24 µM (inactive); in the assay with SNB-75, 5.11 µM (inactive); with T47D it was > 100 µM (inactive); with U-251, 21 µM (inactive); with UACC-257 it was > 100 µM (inactive).
Take `CN1c2ccccc2S(=O)(=O)n2c(COc3ccccc3)nnc21`: the GI50 in the assay on A498 was 57.8 µM (inactive); in the assay with ACHN it was > 100 µM (inactive); in the assay with CCRF-CEM, > 100 µM (inactive); with HCT-15, over 100 µM; with Hs-578T it was > 100 µM (inactive); with IGROV-1 it was > 100 µM (inactive). Also, the GI50 in the assay with K562, in the assay with KM12, with LOX IMVI, in the assay with MDA-N, with NCI-H460 and in the assay with OVCAR-4 was > 100 µM (inactive) throughout. Further, the GI50 is > 100 µM (inactive) in the assay with SF-268; 45.7 µM (inactive) in the assay on SF-295; > 100 µM (inactive) with SK-OV-3; > 100 µM (inactive) in the assay with SNB-19; > 100 µM (inactive) in the assay on T47D; > 100 µM (inactive) in the assay with U-251. Moreover, in the assay with UACC-257, the GI50 was > 100 µM (inactive).
For the compound `CCCCc1ccc(Nc2nc3ncnc-3c[nH]2)cc1`, the GI50 with A498 was 26.1 µM (inactive); in the assay on ACHN, 15.2 µM (inactive); with CCRF-CEM it was 7.94 µM (inactive); with HCT-15, 17.5 µM; with Hs-578T, 5.52 µM (inactive); in the assay on IGROV-1 it was 17.3 µM (inactive). The GI50 is 33.3 µM (inactive) with K562; 19.4 µM (inactive) in the assay with KM12; 20.5 µM (inactive) in the assay on LOX IMVI; 32.8 µM (inactive) in the assay with MDA-N; 25.3 µM (inactive) with OVCAR-4; 16.3 µM (inactive) in the assay on SF-268. Moreover, the GI50 with SF-295 is 18.2 µM (inactive); in the assay with SK-OV-3, 18.4 µM (inactive); in the assay with SNB-19 it was 18.2 µM (inactive); in the assay on SNB-75 it was 14.6 µM (inactive); with T47D it was 19.1 µM (inactive); in the assay on U-251, 22.1 µM (inactive). Besides, the GI50 in the assay on UACC-257 is 21.2 µM (inactive).
Take `c1ccc(-c2cc(-c3cc(-c4ccccn4)[nH]n3)n[nH]2)nc1`: the GI50 in the assay with A498 was > 100 µM (inactive); with ACHN it was > 100 µM (inactive); with HCT-15, 55.7 µM; in the assay with Hs-578T it was > 100 µM (inactive); with IGROV-1 it was > 100 µM (inactive); with K562 it was 8.45 µM (inactive). In addition, the GI50 is > 100 µM (inactive) in the assay on KM12; 94.4 µM (inactive) in the assay with LOX IMVI; 77.3 µM (inactive) in the assay with MDA-N; 35.6 µM (inactive) with NCI-H460; > 100 µM (inactive) in the assay with OVCAR-4; > 100 µM (inactive) in the assay on SF-268. Besides, the GI50 in the assay on SF-295 is 85.5 µM (inactive); in the assay with SK-OV-3 it was > 100 µM (inactive); in the assay on SNB-19, > 100 µM (inactive); with SNB-75 it was 69.8 µM (inactive); in the assay with T47D, 80.4 µM (inactive); with U-251, > 100 µM (inactive). For the same compound, in the assay on UACC-257, the GI50 was > 100 µM (inactive).
Consider `COC(=O)c1ccccc1C#CC#Cc1ccccc1C(=O)OC`, for which the GI50 in the assay on A498 is > 10 µM (inactive); with ACHN it was > 10 µM (inactive); with CCRF-CEM, > 10 µM (inactive); in the assay on HCT-15 it was 7.35 µM; in the assay on Hs-578T, > 10 µM (inactive); in the assay with IGROV-1, > 10 µM (inactive). Moreover, the GI50 with K562 is 8.57 µM (inactive); with KM12 it was 3.19 µM (inactive); in the assay with LOX IMVI, 7 µM (inactive); in the assay on MDA-N it was > 10 µM (inactive); in the assay on NCI-H460, > 10 µM (inactive); in the assay with OVCAR-4, 2.9 µM (inactive). For the same compound, the GI50 in the assay on SF-268, in the assay with SF-295, in the assay on SK-OV-3, with SNB-19, in the assay with T47D and in the assay on U-251 was > 10 µM (inactive) throughout. The GI50 with UACC-257 is > 10 µM (inactive).
Consider `CCOc1cc2c(c(OCC)c1O)CC[C@@H]1[C@@H]2CC[C@]2(C)[C@@H](O)CC[C@@H]12`, for which the GI50 in the assay on A498 is 5.21 µM (inactive); with ACHN, 1.11 µM (active); in the assay on CCRF-CEM, 1.7 µM (inactive); in the assay with HCT-15, 0.289 µM; in the assay on Hs-578T, 4.68 µM (inactive); with IGROV-1, 6.76 µM (inactive). In addition, the GI50 was 0.329 µM (active) in the assay with K562; 6.03 µM (inactive) in the assay with KM12; 2.23 µM (inactive) in the assay with LOX IMVI; 0.234 µM (active) in the assay on MDA-N; 51.8 µM (inactive) with OVCAR-4; 4.79 µM (inactive) with SF-268. For the same compound, the GI50 was 0.693 µM (active) in the assay on SF-295; 4.75 µM (inactive) in the assay with SK-OV-3; 1.25 µM (inactive) in the assay with SNB-19; 0.587 µM (active) with SNB-75; 2.33 µM (inactive) in the assay on T47D.
With `C=C1CC[C@@H]2[C@](C)(COC(=O)CCC(=O)O)CCC[C@@]2(C)[C@@H]1CCC1=CC(=O)OC1`, the GI50 was > 100 µM (inactive) with A498; > 100 µM (inactive) in the assay on ACHN; > 100 µM (inactive) in the assay on CCRF-CEM; over 100 µM in the assay on HCT-15; > 100 µM (inactive) in the assay on Hs-578T; > 100 µM (inactive) with IGROV-1. Further, the GI50 in the assay with K562, in the assay with KM12, in the assay on LOX IMVI, with MDA-N, with OVCAR-4 and in the assay on SF-268 was > 100 µM (inactive) each time. The GI50 in the assay with SF-295, with SK-OV-3, in the assay with SNB-19, in the assay on SNB-75, with T47D and in the assay on U-251 was > 100 µM (inactive) throughout. Also, the GI50 in the assay with UACC-257 is > 100 µM (inactive).
With `CCOP(C)(=O)C(Nc1ccc(F)cc1)c1ccc(F)cc1` (stereo unspecified), the GI50 in the assay on A498 was > 100 µM (inactive); with ACHN, > 100 µM (inactive); in the assay with CCRF-CEM, > 100 µM (inactive); in the assay with HCT-15, over 100 µM; in the assay with Hs-578T, > 100 µM (inactive); in the assay with IGROV-1, > 100 µM (inactive). The GI50 in the assay with K562, in the assay on KM12, in the assay on LOX IMVI, with MDA-N, in the assay on NCI-H460 and in the assay on OVCAR-4 was > 100 µM (inactive) throughout. Besides, the GI50 in the assay with SF-268, with SF-295, in the assay on SK-OV-3, with SNB-19, in the assay with T47D and in the assay with U-251 was > 100 µM (inactive) throughout. For the same compound, the GI50 in the assay on UACC-257 was > 100 µM (inactive).
`CC1=CC(C)(C)NN1C1=NS(=O)(=O)c2ccccc2N1C`: the GI50 in the assay on A498 is > 100 µM (inactive); with ACHN, > 100 µM (inactive); in the assay on CCRF-CEM it was 98.9 µM (inactive); with HCT-15, 89.9 µM; with Hs-578T, > 100 µM (inactive); in the assay on IGROV-1, > 100 µM (inactive). For the same compound, the GI50 is > 100 µM (inactive) in the assay on K562; > 100 µM (inactive) with KM12; > 100 µM (inactive) with LOX IMVI; > 100 µM (inactive) in the assay with MDA-N; > 100 µM (inactive) in the assay on NCI-H460; 44.3 µM (inactive) with OVCAR-4. Further, the GI50 with SF-268, in the assay on SF-295, in the assay on SK-OV-3, in the assay on SNB-19, in the assay on T47D and in the assay on U-251 was > 100 µM (inactive) each time. In the assay with UACC-257, the GI50 is > 100 µM (inactive).
As for `C[C@@H](NC(=O)[C@@H]1C[C@]1(C)CO)c1cccc2ccccc12`, the GI50 with A498 was > 100 µM (inactive); in the assay with ACHN, > 100 µM (inactive); in the assay with CCRF-CEM, > 100 µM (inactive); with HCT-15, over 100 µM; in the assay on Hs-578T, > 100 µM (inactive); in the assay with IGROV-1, > 100 µM (inactive). Further, the GI50 in the assay on K562, in the assay with KM12, in the assay with MDA-N, in the assay with NCI-H460, in the assay on OVCAR-4 and with SF-268 was > 100 µM (inactive) in each case. For the same compound, the GI50 with SF-295, in the assay with SK-OV-3, in the assay on SNB-19, in the assay on SNB-75, in the assay on T47D and in the assay with U-251 was > 100 µM (inactive) each time. In addition, in the assay with UACC-257, the GI50 is > 100 µM (inactive).
